Test results: paper PMC11277004, “Di- and Triselenoesters—Promising Drug Candidates for the Future Therapy of Triple-Negative Breast Cancer” (International Journal of Molecular Sciences, 2024)

Experiments:
Assay type in all cases: cell-based, human
[1] = test system: MDA-MB-231 triple-negative breast cancer cells; assay: MTT cytotoxicity test, MDA-MB-231; conditions: MDA-MB-231, 24 h incubation, read-out: IC50, cell viability (MTT)
Procedure: MCF-7 and MDA-MB-231 human breast cancer cell lines, as well as MCF-10A normal human breast epithelial cells, were acquired from the American Type Culture Collection (ATCC, Manassas, VA, USA). The characteristics of the breast cancer cell lines used in this study are compared in Table 1. MCF-7 and MDA-MB-231 cells were cultured in Dulbecco’s modified Eagle’s medium (Gibco, San Diego, CA, USA), while MCF-10A cells were cultured in the mammary epithelial cell growth medium with the following supplements: BPE, hEGF, insulin, hydrocortisone, GA-1000 (Lonza, Basel, Switzerland). All media were complemented by 10% of fetal bovine serum (FBS) and 1% of the following antibiotics: penicillin and streptomycin (both Gibco, San Diego, CA, USA). The cells were maintained in an incubator that provides the optimal growth conditions for the cell culture: 5% CO2, 37 °C, and humidity in a range of 90–95%. The cells were cultured in 100 mm plates (Sarstedt, Newton, NC, USA). Subsequently, after obtaining a subconfluent cell culture, the cells were detached with 0.05% trypsin with 0.02% EDTA (Gibco, San Diego, CA, USA). […] In this study, cells that obtained 80% confluence were used. The MTT assay was used to determine the cytotoxic effects of the compounds in the study on MCF-7 and MDA-MB-231 breast cancer cells as well as MCF-10A normal human breast epithelial cells based on Carmichael’s method. […] After this time, the medium was removed, and the cell monolayer was washed with warm phosphate-buffered saline (PBS) without calcium and magnesium. In the next step, PBS and MTT solution in PBS (5 mg/mL) were added to each well to obtain a final MTT concentration of 0.5 mg/mL, and then the cells were incubated for 4 h (37 °C temperature, 5% CO2, 90–95% humidity). After the incubation period, the contents of each well were removed, 1 mL of DMSO was added to dissolve the formazan, and then the plate with the added DMSO was mixed for 5–10 min on a microplate shaker (Boeco, Hamburg, Germany). Then, 10 µL of Sorensen’s glycine buffer (a solution of 0.1 M glycine and 0.1 M sodium chloride adjusted to pH 10.5 with 0.1 M sodium hydroxide) was added. The absorbance of the obtained solution was immediately measured at a wavelength of λ = 570 nm using a Thermo Scientific Evolution 201 UV–VIS spectrophotometer (Thermo Fisher Scientific, Waltham, MA, USA). The absorbance result obtained in the control cells (without the addition of the tested compounds) was taken as 100%, while the viability of cells incubated with the tested compounds was presented as a percentage of the control value.

[2] = test system: MDA-MB-231 triple-negative breast cancer cells; assay: DNA biosynthesis assay ([3H]-thymidine incorporation), MDA-MB-231; conditions: read-out: IC50, DNA biosynthesis
Procedure: The study of the antiproliferative properties (intensity of [^3H]-thymidine incorporation into cell DNA) of the tested derivatives against tested cell lines (MCF-7, MDA-MB-231, MCF-10A) was performed after 24 h incubation with varied concentrations of the tested compounds in the medium (0.5–5 µM) in 6-well plates (baseline seeding density: 5 × 10^5 cells/well). After 24 h the medium was removed, the cells were washed with PBS (Corning, Kennebunk, ME, USA), and a fresh medium was added. After that, the cells were treated with 0.5 µCi of tritium-labeled thymidine (specific activity 7 Ci/mmol) by incubating them with this compound for 4 h under the same conditions as the cell culture. In the first step, the medium was removed, and the cell monolayer was washed twice with 1 mL of 0.05 M Tris-HCl buffer pH 7.4 containing 0.11 M NaCl. To denature proteins, the cells were washed twice with 1 mL of 5% trichloroacetic acid (TCA) solution. Finally, cell lysis was performed by adding 1 mL of 0.1 M sodium hydroxide (NaOH) solution containing 1% sodium dodecyl sulfate (SDS) to each well. After five minutes, the obtained cell lysates were transferred to scintillation vials with 2 mL of scintillation fluid added to them beforehand. Radioactivity was measured using the Scintillation Counter 1900 TR, TRI-CARB (Packard, Perkin Elmer, Inc., San Jose, CA, USA). The intensity of DNA biosynthesis in the analyzed cells was expressed in terms of dpm/well. The result of the radioactivity measurement in the control cells (without the addition of tested compounds) was taken as 100%, while the values of cells incubated with the tested compounds were presented as a percentage of the control value.

Bcl-2 = Bcl-2 protein level by flow cytometry, MDA-MB-231; conditions: 24 h
Procedure: (§1) For this purpose, Akt (PE), Bax (FITC), Bcl-2 (Alexa Fluor® 647), LC3A/B (Alexa Fluor® 488), and p53 (Alexa Fluor® 488) antibodies conjugated to different fluorochromes (all from Cell Signaling Technology, Beverly, MA, USA) were utilized. Each assay was performed according to the manufacturer's protocol available on their website. After incubation with the tested compounds, the cells were centrifuged, resuspended in 4% formaldehyde (100 μL/1 × 10^6 cells), and fixed for 15 min at room temperature. Afterward, to remove the formaldehyde, the cells were washed by centrifugation with excess PBS and the permeabilization step was triggered. For this purpose, ice-cold 90% methanol was added to the pre-chilled cell pellet, gently vortexed, and incubated for 1 h on ice. Later, the cells were washed by centrifugation with excess PBS again, resuspended in 100 μL of 1:100 diluted primary antibody (stain buffer was used for dilution), and incubated for 1 h at room temperature in the dark. After incubation, the cells were washed, resuspended in 300 μL PBS, and immediately tested with a flow cytometer (BD FACSCanto II, BD Biosciences Systems, San Jose, CA, USA; 10,000 events measured). The obtained results were analyzed using the FACSDiva 6.0 software (BD Biosciences Systems, San Jose, CA, USA). In the case of the p53 protein, the MRF values were obtained first during the flow cytometer readout utilizing FACSDiva software and later analyzed using FCS Express 7 (De Novo Software, Pasadena, CA, USA). The equipment calibration was performed using the BD Cytometer Setup and Tracking Beads (BD Biosciences, San Diego, CA, USA).

p53 [3] = assay: p53 protein expression by flow cytometry, MCF-7; conditions: 24 h
Procedure: as §1

p53 [4] = assay: p53 protein expression by flow cytometry, MDA-MB-231; conditions: 24 h
Procedure: as §1

| SMILES | IC50 ([1]; Homo sapiens) [nM] | IC50 ([2]; Homo sapiens, MDA-MB-231, 24 h) [nM] | Bcl-2 negative cells ± SD (Bcl-2; MDA-MB-231, 0.5 μM) [%] | Bcl-2 negative cells ± SD (Bcl-2; MDA-MB-231, 1 μM) [%] | p53 protein expression, MRF (p53 [3]; MCF-7, 0.5 μM) | p53 protein expression, MRF (p53 [3]; MCF-7, 1 μM) | p53 protein expression, MRF (p53 [4]; MDA-MB-231, 0.5 μM) | p53 protein expression, MRF (p53 [4]; MDA-MB-231, 1 μM) | IC50 [1] [nM] | IC50 ([2]; MDA-MB-231, 24 h incubation) [nM] |
| --- | --- | --- | --- | --- | --- | --- | --- | --- | --- | --- |
| CC(=O)C[Se]C(=O)c1cc(C(=O)[Se]CC(C)=O)cc(C(=O)[Se]CC(C)=O)c1 [EDAG-8, Se,Se,Se-tris-(2-oxopropyl) benzene-1,3,5-tris-(carboxyselenoate)] | 530 ± 30 | 470 ± 80 | 51.7 ± 3.5 | 74.9 ± 2.7 | 421.3 ± 24.5 | 450.8 ± 28.7 | 624.8 ± 49.7 | 661.5 ± 18.6 | – | – |
| CC(=O)C[Se]C(=O)c1ccc(C(=O)[Se]CC(C)=O)cc1 [EDAG-1, Se,Se-bis(2-oxopropyl) benzene-1,4-bis(carboselenoate)] | 710 ± 60 | 700 ± 150 | 36.1 ± 1.6 | 68.9 ± 5.7 | 404.8 ± 23.7 | 407.8 ± 22.0 | 559.3 ± 63.1 | 593.0 ± 10.8 | – | – |
| N.N.[Cl][Pt][Cl] [Cisplatin, reference compound] | – | – | 4.3 ± 0.3 | 4.5 ± 0.6 | 375.8 ± 19.1 | 380.5 ± 20.4 | 375.5 ± 3.5 | 423.5 ± 2.1 | > 5000 | > 5000 |
